The results in this text go back to paper PMC6093661, “Vitamin E hydroquinone is an endogenous regulator of ferroptosis via redox control of 15-lipoxygenase” (PLoS ONE, 2018).

Molecules are shown by their SMILES. Read-outs that look alike come from different tables or passages of the source. Some results are limits rather than exact numbers.

The test system of one experiment is Q7 cells. The experiment is described as follows: RSL3-induced loss of Q7 cell viability. Format: cell-based, mouse. As to the method:
Ferroptotic cell death was induced in Q7 cells using RSL3, a GPX4 inhibitor previously described. All four stereoisomers of RSL3 were synthesized and purified using published methods. […] To assess compound rescue activity and potency from ferroptotic cell death, Q7 cells were seeded in clear bottom, black wall tissue culture-treated polystyrene plates (Corning) using either an electronic multichannel pipette or a Multidrop™ Combi Reagent Dispenser (ThermoFisher Scientific). Cells were incubated for 5 hours at 33°C in an atmosphere with 95% humidity and 5% CO2 to allow attachment of the cells to the culture plate. Test compounds were administered to the desired final concentrations using a D300e Digital Dispenser (Tecan), followed within 15 minutes by RSL3 (2 μM final concentration). DMSO diluent was back-filled to a final concentration of 0.3% (v/v). Cell plates were incubated at 33°C (5% CO2, 95% humidity) for 18 hours. After a 15-minute equilibration to room temperature, cell number/viability was assessed using the CellTiter-Glo® 2.0 Cell Titer Glo 2.0 reagent (a luminescence-based assay to quantitate ATP; Promega) which was added using the Multidrop™ Combi Reagent Dispenser (Thermo Fisher Scientific). After 15 minutes of incubation at room temperature, the luminescence (100 ms integration time) per well was determined using the BioTek Synergy plate reader. Data was imported into and analyzed using Dotmatics Studies software suite. EC50 values for each compound were estimated using standard four-parameter curve fitting algorithms. pEC50 is defined as negative-log10 (EC50) in M units.

For experiment [1], the target named is T1, Rabbit 15-lipoxygenase (rLOX15) (Oryctolagus cuniculus, UniProt P12530).
T1 construct: purchased Enzo Life Sciences, Inc. BML-PL015
T1 sequence (P12530 1-663): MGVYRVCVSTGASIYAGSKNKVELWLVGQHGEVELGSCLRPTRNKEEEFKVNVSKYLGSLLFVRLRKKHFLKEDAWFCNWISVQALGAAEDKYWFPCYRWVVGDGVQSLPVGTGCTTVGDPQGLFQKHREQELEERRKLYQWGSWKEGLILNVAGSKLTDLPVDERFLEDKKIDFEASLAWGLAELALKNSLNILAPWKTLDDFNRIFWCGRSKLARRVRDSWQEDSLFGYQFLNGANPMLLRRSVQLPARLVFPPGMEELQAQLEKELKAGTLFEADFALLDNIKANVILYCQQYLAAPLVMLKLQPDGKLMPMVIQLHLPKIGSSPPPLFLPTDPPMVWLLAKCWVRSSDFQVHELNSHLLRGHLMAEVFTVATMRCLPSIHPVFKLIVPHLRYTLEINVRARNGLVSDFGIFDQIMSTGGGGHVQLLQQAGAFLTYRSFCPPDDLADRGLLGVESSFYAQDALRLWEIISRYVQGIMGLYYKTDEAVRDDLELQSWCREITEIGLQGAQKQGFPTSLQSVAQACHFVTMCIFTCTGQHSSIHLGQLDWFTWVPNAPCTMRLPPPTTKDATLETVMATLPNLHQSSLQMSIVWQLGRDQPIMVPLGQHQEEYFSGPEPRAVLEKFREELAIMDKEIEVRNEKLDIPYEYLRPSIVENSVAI
The experiment is described as follows: Lipoxygenase enzyme inhibition assay. Format: biochemical. Particulars: for activity at 100 µM: read-out: 15-Lipoxygenase Enzyme Assay % activity at 100 μM; for IC50: 50 μM arachidonic acid substrate. As to the method: Rabbit 15-lipoxygenase (rLOX15, part number BML-PL015, lot number 3-P9009a) was obtained from Enzo Life Sciences, Inc. Sodium cholate (part number C6445, lot number 094K0209) was obtained from Sigma-Aldrich.
Stock solutions of test compounds were prepared in DMSO and then diluted to final assay concentrations in cholate mix such that final cholate and DMSO concentrations were maintained at 0.2%.

The test system of experiment [2] is Mouse striatal Q7 cells (STHdhQ7/Q7). The experiment is described as follows: RSL3 ferroptosis cell rescue (cellular survival assay, CellTiter-Glo). Particulars: for EC50: Mus musculus, 18 h, read-out: RSL3 Ferroptosis Cell Assay Average EC50, Q7 cells, RSL3 2 μM, 18 h co-treatment, CellTiter-Glo 2.0. (ATP-based viability assays read luminescence as a measure of living cells.)

With `COC(=O)c1ccc([C@H]2c3[nH]c4ccccc4c3C[C@H](C(=O)OC)N2C(=O)CCl)cc1` [(1S,3R)-RSL3], in the experiment with Q7 cells (RSL3 2 μM, 18 h, typical), the “reduction of cell number/viability” value was above 80%. Moreover, in the experiment on Q7 cells (RSL3 ≥1 μM), the “onset of cell death after RSL3 addition” value is ~ 5 h. In the experiment on Q7 cells (RSL3 ≥1 μM, 18 h after treatment), the “loss of cell viability” value was 80–95%. In addition, in the experiment with Q7 cells (most potent single stereoisomer of RSL3, read-out: IC50 for inhibition of Q7 cell viability), the half-maximal inhibitory concentration (IC50) is around 200 nM.

Consider `Cc1c(C)c2c(c(C)c1O)CC[C@@](C)(CCC(=O)O)O2` [α-CEHC], for which, in experiment [1] (rabbit 15-LO, compound 100 μM), the activity at 100 µM stood at 24%. Further, in experiment [2], the 50% effective concentration (EC50) was found to be 8510 nM.

As to `CC(C)=CCC/C(C)=C/CC/C(C)=C/CC[C@]1(C)CCc2c(C)c(O)c(C)c(C)c2O1` [αT3, α-tocotrienol], the IC50 in experiment [1] (rabbit 15-LO) was above 100000 nM. In experiment [1] (rabbit 15-LO, compound 100 μM), the activity at 100 µM worked out at 64%. In addition, the EC50 in experiment [2] worked out at 167 nM. Further, the “fold more potent in inhibiting ferroptosis, tocotrienol vs corresponding tocopherol” value in experiment [2] (Q7 cells, RSL3, EC50 ratio) is on record as ~ 30 fold.

As to `CC(C)=CCC/C(C)=C/CC/C(C)=C/CC[C@@](C)(O)CCc1c(C)c(O)c(C)c(C)c1O` [αT3HQ, α-tocotrienol hydroquinone], the IC50 in experiment [1] (rabbit 15-LO) was 1990 nM. Further, the activity at 100 µM in experiment [1] (rabbit 15-LO, compound 100 μM) was found to be 9%. Also, the concentration giving a half-maximal response (EC50) in experiment [2] was 43 nM.

As to `CC(C)=CCC/C(C)=C/CC/C(C)=C/CC[C@@](C)(O)CCC1=C(C)C(=O)C(C)=C(C)C1=O` [αT3Q, α-tocotrienol quinone], the half-maximal effective concentration (EC50) in experiment [2] turned out to be 43 nM.

On to `CC(C)=CCC/C(C)=C/CC/C(C)=C/CC[C@]1(C)CCc2cc(O)c(C)c(C)c2O1` [γT3, γ-tocotrienol], for which the activity at 100 µM in experiment [1] was found to be 33%.

Regarding `CC(C)=CCC/C(C)=C/CC/C(C)=C/CC[C@@](C)(O)CCc1cc(O)c(C)c(C)c1O` [γT3HQ, γ-tocotrienol hydroquinone], in experiment [1] (rabbit 15-LO), the IC50 came to 1120 nM. Moreover, the activity at 100 µM in experiment [1] (rabbit 15-LO, compound 100 μM) stood at 7%. In addition, the EC50 in experiment [2] worked out at 36 nM.

Turning to `CC(C)=CCC/C(C)=C/CC/C(C)=C/CC[C@@](C)(O)CCC1=CC(=O)C(C)=C(C)C1=O` [γT3Q, γ-tocotrienol quinone], in experiment [2], the EC50 was determined as 52 nM.

On to `Cc1c(O)cc2c(c1C)O[C@](C)(CCC[C@H](C)CCC[C@H](C)CCCC(C)C)CC2` [γT, γ-tocopherol], for which the activity at 100 µM in experiment [1] (rabbit 15-LO, compound 100 μM) worked out at 34%. In addition, the EC50 in experiment [2] was found to be 3220 nM.

For the compound `Cc1c(O)cc(CC[C@](C)(O)CCC[C@H](C)CCC[C@H](C)CCCC(C)C)c(O)c1C` [γTHQ, γ-tocopherol hydroquinone], in experiment [1] (rabbit 15-LO), half-maximal inhibition (IC50) required 2190 nM. The activity at 100 µM in experiment [1] (rabbit 15-LO, compound 100 μM) came out at 18%. The EC50 in experiment [2] is 64 nM.

As to `CC1=C(C)C(=O)C(CC[C@](C)(O)CCC[C@H](C)CCC[C@H](C)CCCC(C)C)=CC1=O` [γTQ, γ-tocopherol quinone], the EC50 in experiment [2] amounted to 101 nM.

Take `CC(C)=CCC/C(C)=C/CC/C(C)=C/CC[C@]1(C)CCc2cc(O)cc(C)c2O1` [δT3, δ-tocotrienol]: the activity at 100 µM in experiment [1] (rabbit 15-LO, compound 100 μM) amounted to 46%. Moreover, the EC50 in experiment [2] came to 517 nM.

Compound `CC(C)=CCC/C(C)=C/CC/C(C)=C/CC[C@@](C)(O)CCc1cc(O)cc(C)c1O` [δT3HQ, δ-tocotrienol hydroquinone] displayed an IC50 in experiment [1] (rabbit 15-LO) of 1370 nM. For the same compound, in experiment [1] (rabbit 15-LO, compound 100 μM), the activity at 100 µM turned out to be 14%. Also, in experiment [2], the EC50 turned out to be 146 nM.

Take `CC(C)=CCC/C(C)=C/CC/C(C)=C/CC[C@@](C)(O)CCC1=CC(=O)C=C(C)C1=O` [δT3Q, δ-tocotrienol quinone]: in experiment [2], the EC50 came to 163 nM.

With `Cc1cc(O)cc2c1O[C@](C)(CCC[C@H](C)CCC[C@H](C)CCCC(C)C)CC2` [δT, δ-tocopherol], the activity at 100 µM in experiment [1] (rabbit 15-LO, compound 100 μM) is 45%. Also, the EC50 in experiment [2] worked out at 5670 nM.

Regarding `Cc1cc(O)cc(CC[C@](C)(O)CCC[C@H](C)CCC[C@H](C)CCCC(C)C)c1O` [δTHQ, δ-tocopherol hydroquinone], the IC50 in experiment [1] (rabbit 15-LO) was 2090 nM. Moreover, the activity at 100 µM in experiment [1] (rabbit 15-LO, compound 100 μM) is 17%. The EC50 in experiment [2] stood at 84 nM.

With `CC1=CC(=O)C=C(CC[C@](C)(O)CCC[C@H](C)CCC[C@H](C)CCCC(C)C)C1=O` [δTQ], in experiment [2], the EC50 was determined as 236 nM.

By IC50 is commonly meant the concentration that inhibits the measured activity by half. Usually EC50 stands for the concentration that produces a half-maximal response.
